The text below walks through data of EP3461488A1, “COMBINATION OF A DBAIT MOLECULE AND A HDAC INHIBITOR FOR TREATING CANCER” (ONXEO, priority 2017, dated 2019).

The test system of series [1] is histiocytic lymphoma cell line U937. In words: XTT cell survival assay and combination index analysis, U937. The series is classed as cell-based. To be noted: Homo sapiens, U-937.
Procedure: (§1) Cell cultures were performed with the triple negative breast cancer cell line MDA-MB-231, the histiocytic lymphoma cell line U937 and the non-tumor mammary cell line MCF-10A. Cells were grown according to the supplier's instructions. Cell lines were maintained at 37°C in a humidified atmosphere at 5% CO2, except the MDA-MB-231 cell line which was maintained at 0% CO2.
(§2) In a first step, the characterization of the effect of drugs monotherapy on cell survival (tumour and non-tumour cells) was performed. MDA-MB-231 (5.10^3 cells/well), MCF-10A (5.10^3 cells/well) and U937 (2.10^4 cells/well) were seeded in 96 well-plates and incubated 24 hours at +37°C before drug addition with increasing concentrations for 4 to 7 days. Following drug exposure, cell survival was measured using the XTT assay (Sigma Aldrich). Briefly, the XTT solution was added directly to each well containing cell culture and the cells incubated for 4 to 24 hours at 37°C before reading the absorbance at 490 nm and 690 nm using a microplate reader (BMG Fluostar, Galaxy). Cell survival was calculated as the ratio of living treated cells to living mock-treated cells. The IC50 (which represents the dose at which 50% of the cells are viable) was calculated by a non-linear regression model using GraphPad Prism software (version 5.04) by plotting the percentage viability against the Log of the drug concentration on each cell line.
The subject of series [2] is non-tumor mammary cell line MCF-10A. In words: XTT cell survival assay, non-tumor cells MCF-10A. To be noted: same drug doses as MDA-MB-231, 7 days after treatment, result in words. Background: Formazan colour is commonly taken as a measure of viable cells.
Procedure: as §1, §2
(§3) In a second step, analysis and quantification of the drug combination efficacy were performed. Cells were seeded in 96-well plates at the appropriate densities and treated with AsiDNA and/or the HDAC inhibitor (HDACi) belinostat simultaneously during 4 to 7days.
In a first step, the characterization of the effect of drugs monotherapy on cell survival (tumour and non-tumour cells) was performed. MDA-MB-231 (5.10^3 cells/well), MCF-10A (5.10^3 cells/well) and U937 (2.10^4 cells/well) were seeded in 96 well-plates and incubated 24 hours at +37°C before drug addition with increasing concentrations for 4 to 7 days. Following drug exposure, cell survival was measured using the XTT assay (Sigma Aldrich). Briefly, the XTT solution was added directly to each well containing cell culture and the cells incubated for 4 to 24 hours at 37°C before reading the absorbance at 490 nm and 690 nm using a microplate reader (BMG Fluostar, Galaxy). Cell survival was calculated as the ratio of living treated cells to living mock-treated cells. […] In a second step, analysis and quantification of the drug combination efficacy were performed. […] Cell survival was measured using the XTT assay (see above). Combination efficacy was evaluated by "the combination index (CI)" which was determined using the CalcuSyn software tool based on the Chou Talalay method. […]
Series [3] concerns triple negative breast cancer cell line MDA-MB-231. The experiment in a line: XTT cell survival assay and combination index analysis, MDA-MB-231. To be noted: Homo sapiens. The format is cell-based.
Procedure: Cells were grown according to the supplier's instructions.
In a first step, the characterization of the effect of drugs monotherapy on cell survival (tumour and non-tumour cells) was performed. […] Following drug exposure, cell survival was measured using the XTT assay (Sigma Aldrich). […] Cell survival was calculated as the ratio of living treated cells to living mock-treated cells.
as §3
Combination efficacy was evaluated by "the combination index (CI)" which was determined using the CalcuSyn software tool based on the Chou Talalay method). […] Note that we define synergism as a more than expected additive effect, and antagonism as a less than expected additive effect.
In a first step, the characterization of the effect of drugs monotherapy on cell survival (tumour and non-tumour cells) was performed. […] Following drug exposure, cell survival was measured using the XTT assay (Sigma Aldrich). […] Cell survival was calculated as the ratio of living treated cells to living mock-treated cells. […] In a second step, analysis and quantification of the drug combination efficacy were performed. […] Cell survival was measured using the XTT assay (see above). Combination efficacy was evaluated by "the combination index (CI)" which was determined using the CalcuSyn software tool based on the Chou Talalay method. […]
In a first step, characterization of the effect of drugs monotherapy on cell survival (tumour and non-tumour cells) was performed. […] Following drug exposure, cell survival was measured using the XTT assay (Sigma Aldrich). […] Cell survival was calculated as the ratio of living treated cells to living mock-treated cells. […] In a second step, analysis and quantification of the drug combination efficacy were performed. […] Cell survival was measured using the XTT assay (see above). […]
Where [4] appears, read: U937, XTT assay, monotherapy, increasing concentrations for 4 to 7 days, dose at which 50% of the cells are viable, read-out: IC50.
[5] abbreviates: XTT assay, monotherapy, increasing concentrations for 4 to 7 days, dose at which 50% of the cells are viable, read-out: IC50.

SMILES strings stand for the structures. Like-named read-outs stand apart in the source and are kept apart here.

As usually defined, the IC50 is the concentration needed to halve the response being measured. With `O=C(/C=C/c1cccc(S(=O)(=O)Nc2ccccc2)c1)NO` [Belinostat, (2E)-N-hydroxy-3-[3-(phenylsulfamoyl)phenyl]prop-2-enamide], the IC50 in series [1] (setting [4]) and in series [3] (setting [5]) was 0.25 µM each time. The “cell survival of non-tumor cells (sensitivity)” value (“cell survival of non-tumor cells” for short) in series [2] is listed as “insensitive”.

Turning to `Nc1ccccc1NC(=O)c1ccc(CNC(=O)OCc2cccnc2)cc1` [Entinostat], the IC50 in series [1] (setting [4]) was 0.01 µM; in series [3] (setting [5]) it was 0.1 µM. Further, the “cell survival of non-tumor cells” value in series [2] is “insensitive”.

Turning to `C/C=C1\NC(=O)[C@H]2CSSCC/C=C/[C@H](CC(=O)N[C@H](C(C)C)C(=O)N2)OC(=O)[C@H](C(C)C)NC1=O` [Romidepsin], the IC50 worked out at 0.001 µM in series [1] and 0.0004 µM in series [3]. Besides, in series [2], the “cell survival of non-tumor cells” value is recorded as “showed a sensitivity”.

`O=C(CCCCCCC(=O)Nc1ccccc1)NO` [Vorinostat, N-hydroxy-N'-phenyloctanediamide]: in series [2], the “cell survival of non-tumor cells” value is recorded as “showed a sensitivity”.
